The results in this text go back to the supplement of paper PMC10307832.

What all share (assay): relative viability (nuclei count vs DMSO), 5 days (fraction); higher = more cells survive
Compound in assay [1]: Cn1cc(-c2cnc3ccc4ccc(CS(=O)(=O)NCc5ccccn5)cc4c(=O)c3c2)cn1 [MK-8033] + COc1cc2c(Oc3ccc(NC(=O)C4(C(=O)Nc5ccc(F)cc5)CC4)cc3F)ccnc2cc1OCCCN1CCOCC1 [Foretinib] (partner 0.25 µM)
The essentials: (§1)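 Lung cancer cell lines were pin-tool dosed in 1536-well plates on the day after seeding, with either a lone drug or a fixed anchor-drug dose plus five library-drug doses (not always all listed) in √10 steps. Nuclei were counted on 4× images after 5 days. Relative viability is the ratio of treated-well to vehicle-well nuclei counts, with each value a median of duplicate plates.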

Compound in assay [2]: CCc1c2c(nc3ccc(OC(=O)N4CCC(N5CCCCC5)CC4)cc13)-c1cc3c(c(=O)n1C2)COC(=O)[C@]3(O)CC [Irinotecan] + CS(=O)(=O)N1CCN(Cc2cc3nc(-c4cccc5[nH]ncc45)nc(N4CCOCC4)c3s2)CC1 [Pictilisib] (partner 1 µM)
The essentials: as §1

Compound in assay [3]: CC[C@@H](C)CNCC(=O)N1CCC2=C([C@@H]1COC3=CC=CC(=C3)C)C=CS2 [RU-SKI 43] + COc1cccc2cc(-c3nc([C@H]4CC[C@H](C(=O)O)CC4)n4ncnc(N)c34)[nH]c12 [OSI-027] (partner 0.5 µM)
The essentials: as §1

Compound in assay [4]: CCc1c2c(nc3ccc(OC(=O)N4CCC(N5CCCCC5)CC4)cc13)-c1cc3c(c(=O)n1C2)COC(=O)[C@]3(O)CC [Irinotecan] + COc1cc2c(Oc3ccc(NC(=O)C4(C(=O)Nc5ccc(F)cc5)CC4)cc3F)ccnc2cc1OCCCN1CCOCC1 [Foretinib] (partner 0.25 µM)
The essentials: as §1

Turning to UMC-11, the relative viability in assay [1] (first compound 0.02 µM) came out at 1.08; in assay [1] (first compound 0.06325 µM), 1.04; in assay [1] (first compound 0.2 µM), 0.989; in assay [1] (first compound 2 µM) it was 1.08; in assay [2] (first compound 0.6325 µM), 0.317; in assay [2] (first compound 2 µM) it was 0.532. Moreover, the relative viability was 0.215 in assay [2] (first compound 6.325 µM); 0.158 in assay [2] (first compound 20 µM); 0.534 in assay [3] (first compound 0.1 µM); 0.631 in assay [3] (first compound 0.3162 µM); 0.492 in assay [3] (first compound 1 µM); 0.5 in assay [3] (first compound 3.162 µM). The relative viability is 0.463 in assay [3] (first compound 10 µM); 0.704 in assay [4] (first compound 0.6325 µM); 0.518 in assay [4] (first compound 2 µM); 0.337 in assay [4] (first compound 6.325 µM); 0.237 in assay [4] (first compound 20 µM).
